The source of these data is patent US20100075899A1, “TARGETED PHOTODYNAMIC THERAPY AGENT” (TRUSTEES OF THE UNIVERSITY OF PENNSYLVANIA, priority 2006, published 2010).

The test system of one data set is KB cells (FR+). Description: Flow cytometry uptake (Pyro fluorescence), KB cells. Type of data set: cell-based, human. The method, then:
(§1) Flow cytometry experiments. KB, HT 1080, and CHO cells were seeded in T25 flasks (each flask 10^6 cells) and grown for 1 day in complete MEM (KB cells and HT 1080 cells) or complete F12K (CHO cells) medium. […] The cells were detached by 0.25% Trypsin-EDTA, fixed by 1% formaldehyde (methanol free) in PBS, resuspended in 1 mL of PBS and immediately analyzed on a BD LSRII machine at the Flow Cytometry Laboratory, Abramson Cancer Center at the University of Pennsylvania focusing on Pyro fluorescence (exc. 633 nm, em. 695 nm).

Another data set deals with HT 1080 cells (FR−). In words: Flow cytometry uptake (Pyro fluorescence), HT 1080 cells. Type of data set: cell-based, human. The method, then:
as §1
For orientation: A flow cytometer gives signals particle by particle.

The next data set deals with CHO cells (FR−). In words: Flow cytometry uptake (Pyro fluorescence), CHO cells. Type of data set: cell-based, Chinese hamster. The protocol: as §1
The format of data set [1] is physicochemical. The method, then: Pyro-[…] (PP) Pyro-[…]-Folate (PPF) were purified by HPLC (Waters 600 Controller with a 2996 Photodiode Array Detector). The eluents were A=0.1M TEAA (pH 7) and B=acetonitrile and the method used for all injections was 90% of A and 10% of B to 100% of B in 45 minutes with flow 1.5 mL/min on a Zorbax 300SB-C3 column The coupling reagents HBTU (O-(Benzotriazol-1-yl)-N,N,N′,N′-tetramethyluronium hexafluorophosphate) and HOBt (1-Hydroxybenzotriazole) were purchased from Fluka and ACROS respectively. MALDI-ToF was measured on an Applied Biosystems Voyager DE Mass Spectrometer and fluorescence was measured on a Perkin Elmer LS50B Luminescence Spectrometer. We acquired confocal images using a Leica TCS SP2 Confocal Microscope and Xenogen images at the Bioluminescence Molecular Imaging Core facility at UPenn on an IVIS Xenogen Imager. KB cells (human epidermal cancer cells; folate receptor positive), HT 1080 cells (human fibrosarcoma cells; folate receptor negative), and CHO (Chinese hamster ovary cells; folate receptor negative) were purchased from ATCC. […]

With Pyro-K-Folate [PKF], in the data set with KB cells (FR+), the “uptake efficiency into KB cells relative to Pyro-GDEVDGSGK-Folate” value is 50%. Moreover, the “uptake efficiency PPF versus PKF in HT 1080 cells” value in the data set on HT 1080 cells (FR−) was “with the same efficiency”. The “uptake efficiency PPF versus PKF in CHO cells” value in the data set on CHO cells (FR−) is “with the same efficiency”. For the same substance, the “solubility in water compared with PPF” value in data set [1] is reported as “less soluble in water”. The “hydrophobicity (HPLC) compared with PPF” value in data set [1] (HPLC) is “more hydrophobic”.
